In ChEMBL document CHEMBL1201862, “PubChem BioAssay data set” (2004):
The source made the active and inactive calls.

Experiments:
Caspase-3 = target: T1, Caspase-3 (Homo sapiens, UniProt P42574); type: functional;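 also: Dose-response selectivity test against caspase-3 for candidate inhibitors of sentrin-specific proteases (SENPs)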
T1 sequence (P42574 whole entry): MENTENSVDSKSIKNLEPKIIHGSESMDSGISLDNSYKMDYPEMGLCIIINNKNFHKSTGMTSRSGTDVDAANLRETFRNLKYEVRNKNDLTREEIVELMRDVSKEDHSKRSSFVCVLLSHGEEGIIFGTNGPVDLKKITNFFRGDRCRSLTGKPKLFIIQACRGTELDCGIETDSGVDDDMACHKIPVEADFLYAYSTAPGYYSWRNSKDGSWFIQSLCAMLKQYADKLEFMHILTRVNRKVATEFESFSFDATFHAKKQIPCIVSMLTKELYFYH

[1] = target: T2, Sentrin-specific protease 7 (Homo sapiens, UniProt Q9BQF6); type: functional;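 also: Luminescence-based dose-response confirmation of ultra-high-throughput screening hits, measuring inhibition of SENP7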
T2 sequence (Q9BQF6 whole entry): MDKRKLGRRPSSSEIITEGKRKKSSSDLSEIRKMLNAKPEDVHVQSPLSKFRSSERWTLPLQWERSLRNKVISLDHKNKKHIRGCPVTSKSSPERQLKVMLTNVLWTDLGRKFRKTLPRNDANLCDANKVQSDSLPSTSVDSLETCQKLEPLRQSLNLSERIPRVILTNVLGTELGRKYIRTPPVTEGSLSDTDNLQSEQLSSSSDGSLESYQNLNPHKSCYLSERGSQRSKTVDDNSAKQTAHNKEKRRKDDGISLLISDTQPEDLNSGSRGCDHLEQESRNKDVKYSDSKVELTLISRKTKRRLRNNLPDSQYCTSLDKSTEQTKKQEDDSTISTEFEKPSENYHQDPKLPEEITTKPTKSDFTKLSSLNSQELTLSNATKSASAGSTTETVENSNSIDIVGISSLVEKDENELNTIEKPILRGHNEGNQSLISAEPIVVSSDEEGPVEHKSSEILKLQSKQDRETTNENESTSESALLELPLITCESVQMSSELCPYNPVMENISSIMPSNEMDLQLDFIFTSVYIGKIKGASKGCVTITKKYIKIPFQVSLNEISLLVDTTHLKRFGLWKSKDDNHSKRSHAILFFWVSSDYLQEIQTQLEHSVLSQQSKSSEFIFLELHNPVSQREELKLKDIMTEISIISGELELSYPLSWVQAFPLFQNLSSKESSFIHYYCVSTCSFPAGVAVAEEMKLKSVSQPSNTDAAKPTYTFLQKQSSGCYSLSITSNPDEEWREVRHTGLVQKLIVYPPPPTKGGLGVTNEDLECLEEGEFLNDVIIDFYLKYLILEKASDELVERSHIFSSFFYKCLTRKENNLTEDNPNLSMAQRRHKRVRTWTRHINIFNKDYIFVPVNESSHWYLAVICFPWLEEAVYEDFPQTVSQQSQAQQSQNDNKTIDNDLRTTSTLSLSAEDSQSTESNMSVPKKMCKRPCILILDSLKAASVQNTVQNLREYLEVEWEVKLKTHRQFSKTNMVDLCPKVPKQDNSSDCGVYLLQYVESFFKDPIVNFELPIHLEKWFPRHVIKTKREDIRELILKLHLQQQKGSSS

[2] = target: T3, Sentrin-specific protease 6 (Homo sapiens, UniProt Q9GZR1); type: functional;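 also: Luminescence-based dose-response confirmatory assay of SENP6 inhibition, following up an ultra-high-throughput screen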
T3 sequence (Q9GZR1 whole entry): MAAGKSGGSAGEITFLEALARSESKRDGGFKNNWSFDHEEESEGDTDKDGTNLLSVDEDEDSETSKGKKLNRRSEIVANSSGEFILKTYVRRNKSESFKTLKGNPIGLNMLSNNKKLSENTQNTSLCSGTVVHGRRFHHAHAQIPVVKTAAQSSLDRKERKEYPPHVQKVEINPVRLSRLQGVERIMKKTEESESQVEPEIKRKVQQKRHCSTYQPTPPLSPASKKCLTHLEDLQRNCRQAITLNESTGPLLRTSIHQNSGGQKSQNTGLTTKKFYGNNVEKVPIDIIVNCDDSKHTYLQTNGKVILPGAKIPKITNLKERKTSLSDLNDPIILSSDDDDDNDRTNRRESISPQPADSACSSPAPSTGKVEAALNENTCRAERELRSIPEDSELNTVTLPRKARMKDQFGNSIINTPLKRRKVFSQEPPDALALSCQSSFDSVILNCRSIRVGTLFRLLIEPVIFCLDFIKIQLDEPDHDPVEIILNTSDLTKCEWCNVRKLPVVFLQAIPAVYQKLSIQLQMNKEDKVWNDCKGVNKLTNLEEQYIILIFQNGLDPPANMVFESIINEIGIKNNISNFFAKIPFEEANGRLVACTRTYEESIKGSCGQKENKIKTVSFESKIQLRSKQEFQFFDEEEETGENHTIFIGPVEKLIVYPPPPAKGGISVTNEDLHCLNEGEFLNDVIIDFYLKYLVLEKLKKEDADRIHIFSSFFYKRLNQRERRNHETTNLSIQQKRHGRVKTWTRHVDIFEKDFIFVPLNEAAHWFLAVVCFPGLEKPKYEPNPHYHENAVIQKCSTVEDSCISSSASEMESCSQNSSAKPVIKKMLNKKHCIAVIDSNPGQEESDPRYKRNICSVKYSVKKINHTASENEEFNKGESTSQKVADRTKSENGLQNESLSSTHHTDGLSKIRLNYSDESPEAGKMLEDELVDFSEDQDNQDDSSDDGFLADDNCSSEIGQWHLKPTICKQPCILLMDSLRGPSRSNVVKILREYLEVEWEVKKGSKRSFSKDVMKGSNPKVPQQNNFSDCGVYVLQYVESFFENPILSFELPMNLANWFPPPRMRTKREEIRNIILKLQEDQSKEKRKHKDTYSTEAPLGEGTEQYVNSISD

[3] = target: T4, Sentrin-specific protease 8 (Homo sapiens, UniProt Q96LD8); type: functional;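 also: luminescence read-out of SENP8 inhibition, dose-response confirmation following an ultra-high-throughput screen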
T4 sequence (Q96LD8 whole entry): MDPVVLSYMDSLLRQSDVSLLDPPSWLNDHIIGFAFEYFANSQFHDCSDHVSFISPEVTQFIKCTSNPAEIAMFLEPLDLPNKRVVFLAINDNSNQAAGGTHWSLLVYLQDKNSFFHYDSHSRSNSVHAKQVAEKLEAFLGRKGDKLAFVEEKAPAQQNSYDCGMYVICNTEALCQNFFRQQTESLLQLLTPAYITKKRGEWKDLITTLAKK

[4] = target: T5, Endoribonuclease toxin MazF (Escherichia coli K-12, UniProt P0AE70); experiment: activation of MazEF endoribonuclease cleavage – biochemical, fluorescence, single-stranded RNA substrate, uHTS hits, dose response (AID 588481); type: functional
T5 sequence (P0AE70 whole entry): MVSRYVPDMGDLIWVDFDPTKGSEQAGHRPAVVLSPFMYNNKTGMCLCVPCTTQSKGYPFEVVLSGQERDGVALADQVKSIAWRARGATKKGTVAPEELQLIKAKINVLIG

[5] = target: T5, Endoribonuclease toxin MazF; experiment: substrate-only fluorescence increase artefacts – biochemical, single-stranded RNase substrate, counter-screen for MazEF activator project, dose response (AID 588502); type: functional
Cytochrome P450 3A4 = Cytochrome P450 3A4 (Homo sapiens, UniProt P08684);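 also: CYP3A4 tested as one member of a cytochrome P450 panel screen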
Cytochrome P450 2C9 = Cytochrome P450 2C9 (Homo sapiens, UniProt P11712)
[6] = microbe, parasite or virus in culture; type: functional; conditions: Mycobacterium tuberculosis
[7] = target: T6, Replicative DNA helicase DnaB (Mycobacterium tuberculosis, UniProt P9WMR3); experiment: DnaB intein splicing inhibitors, dose response, biochemical, cell-free fluorescence (AID 449749); type: functional
T6 sequence (P9WMR3 whole entry): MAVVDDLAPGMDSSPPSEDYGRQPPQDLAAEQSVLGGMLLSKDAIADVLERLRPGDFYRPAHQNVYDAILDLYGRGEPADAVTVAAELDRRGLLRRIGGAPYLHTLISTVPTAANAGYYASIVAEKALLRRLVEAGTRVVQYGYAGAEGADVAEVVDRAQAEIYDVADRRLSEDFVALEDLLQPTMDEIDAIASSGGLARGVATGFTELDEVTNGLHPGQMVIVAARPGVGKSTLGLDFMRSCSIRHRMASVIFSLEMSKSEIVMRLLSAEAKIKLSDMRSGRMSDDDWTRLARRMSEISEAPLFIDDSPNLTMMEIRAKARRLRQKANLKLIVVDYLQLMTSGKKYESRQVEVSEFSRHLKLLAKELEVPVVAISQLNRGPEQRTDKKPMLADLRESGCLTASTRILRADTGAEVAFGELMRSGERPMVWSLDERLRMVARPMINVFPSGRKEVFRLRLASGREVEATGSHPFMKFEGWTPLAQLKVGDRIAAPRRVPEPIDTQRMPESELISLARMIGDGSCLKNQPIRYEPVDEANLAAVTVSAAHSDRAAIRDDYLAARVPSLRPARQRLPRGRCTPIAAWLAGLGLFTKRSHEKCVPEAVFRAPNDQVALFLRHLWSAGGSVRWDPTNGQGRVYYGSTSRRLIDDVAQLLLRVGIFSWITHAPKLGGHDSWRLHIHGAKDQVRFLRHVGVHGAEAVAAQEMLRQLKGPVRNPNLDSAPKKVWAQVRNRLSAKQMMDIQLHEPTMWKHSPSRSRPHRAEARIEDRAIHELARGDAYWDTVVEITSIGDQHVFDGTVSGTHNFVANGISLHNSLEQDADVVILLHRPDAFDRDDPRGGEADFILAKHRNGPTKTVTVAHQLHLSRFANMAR

Protein RecA = target: T7, Protein RecA (Mycobacterium tuberculosis, UniProt P9WHJ3); experiment: Fluorescence Cell-Free Homogeneous Dose Retest to Identify Inhibitors of RecA-Intein Splicing Activity. [Related pubchem assays (depositor defined):AID2097, AID2223, AID489010, AID492950]; type: functional
T7 sequence (P9WHJ3 whole entry): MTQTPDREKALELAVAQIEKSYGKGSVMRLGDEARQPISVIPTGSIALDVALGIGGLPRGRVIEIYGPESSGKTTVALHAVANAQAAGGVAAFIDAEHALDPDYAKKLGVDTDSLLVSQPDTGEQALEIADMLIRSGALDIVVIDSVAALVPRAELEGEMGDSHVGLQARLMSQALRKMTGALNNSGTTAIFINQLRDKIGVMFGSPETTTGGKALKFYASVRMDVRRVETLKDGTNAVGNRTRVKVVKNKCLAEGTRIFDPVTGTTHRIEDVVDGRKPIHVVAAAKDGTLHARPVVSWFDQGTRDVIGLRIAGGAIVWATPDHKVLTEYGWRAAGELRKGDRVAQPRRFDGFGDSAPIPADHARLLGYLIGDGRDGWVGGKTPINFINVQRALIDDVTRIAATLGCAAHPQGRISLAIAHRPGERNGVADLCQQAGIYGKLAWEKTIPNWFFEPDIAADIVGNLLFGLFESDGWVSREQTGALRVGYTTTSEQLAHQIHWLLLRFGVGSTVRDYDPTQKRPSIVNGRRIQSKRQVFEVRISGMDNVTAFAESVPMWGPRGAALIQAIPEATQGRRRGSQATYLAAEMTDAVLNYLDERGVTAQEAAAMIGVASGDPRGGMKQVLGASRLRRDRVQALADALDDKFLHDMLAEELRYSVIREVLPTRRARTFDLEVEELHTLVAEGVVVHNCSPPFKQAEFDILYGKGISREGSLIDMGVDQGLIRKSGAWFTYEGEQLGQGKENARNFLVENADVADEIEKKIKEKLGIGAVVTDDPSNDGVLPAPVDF

Cytochrome P450 2D6 = Cytochrome P450 2D6 (Homo sapiens, UniProt P10635);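 also: CYP2D6 member of a cytochrome P450 panel assay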
Chain of Cytochrome P450 2D6 (P10635 whole entry): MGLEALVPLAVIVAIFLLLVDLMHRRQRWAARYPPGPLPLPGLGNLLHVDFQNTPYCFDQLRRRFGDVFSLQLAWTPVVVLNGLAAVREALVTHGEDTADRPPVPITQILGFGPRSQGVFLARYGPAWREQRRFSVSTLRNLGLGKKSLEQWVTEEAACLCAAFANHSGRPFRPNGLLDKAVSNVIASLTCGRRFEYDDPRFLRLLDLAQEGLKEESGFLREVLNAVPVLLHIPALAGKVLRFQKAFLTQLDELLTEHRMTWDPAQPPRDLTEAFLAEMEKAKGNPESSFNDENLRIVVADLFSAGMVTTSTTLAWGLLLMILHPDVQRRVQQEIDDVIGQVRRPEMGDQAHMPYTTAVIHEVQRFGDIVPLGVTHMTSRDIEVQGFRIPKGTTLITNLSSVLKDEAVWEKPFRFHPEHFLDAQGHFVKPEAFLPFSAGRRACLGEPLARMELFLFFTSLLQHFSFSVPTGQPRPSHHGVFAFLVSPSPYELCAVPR

Chain of Cytochrome P450 2C9 (P11712 whole entry): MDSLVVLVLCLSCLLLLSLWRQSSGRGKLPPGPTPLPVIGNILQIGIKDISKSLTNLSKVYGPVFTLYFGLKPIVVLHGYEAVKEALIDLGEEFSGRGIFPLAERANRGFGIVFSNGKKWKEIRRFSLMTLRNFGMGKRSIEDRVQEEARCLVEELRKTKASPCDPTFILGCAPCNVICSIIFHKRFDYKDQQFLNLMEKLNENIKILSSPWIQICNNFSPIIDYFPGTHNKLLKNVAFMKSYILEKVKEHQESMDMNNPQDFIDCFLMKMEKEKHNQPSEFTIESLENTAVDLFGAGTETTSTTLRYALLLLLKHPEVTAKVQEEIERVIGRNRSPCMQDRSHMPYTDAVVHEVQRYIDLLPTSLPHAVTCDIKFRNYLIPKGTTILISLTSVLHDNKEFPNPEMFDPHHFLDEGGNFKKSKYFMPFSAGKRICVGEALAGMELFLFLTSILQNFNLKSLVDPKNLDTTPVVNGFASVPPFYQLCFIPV
Chain of Cytochrome P450 3A4 (P08684 whole entry): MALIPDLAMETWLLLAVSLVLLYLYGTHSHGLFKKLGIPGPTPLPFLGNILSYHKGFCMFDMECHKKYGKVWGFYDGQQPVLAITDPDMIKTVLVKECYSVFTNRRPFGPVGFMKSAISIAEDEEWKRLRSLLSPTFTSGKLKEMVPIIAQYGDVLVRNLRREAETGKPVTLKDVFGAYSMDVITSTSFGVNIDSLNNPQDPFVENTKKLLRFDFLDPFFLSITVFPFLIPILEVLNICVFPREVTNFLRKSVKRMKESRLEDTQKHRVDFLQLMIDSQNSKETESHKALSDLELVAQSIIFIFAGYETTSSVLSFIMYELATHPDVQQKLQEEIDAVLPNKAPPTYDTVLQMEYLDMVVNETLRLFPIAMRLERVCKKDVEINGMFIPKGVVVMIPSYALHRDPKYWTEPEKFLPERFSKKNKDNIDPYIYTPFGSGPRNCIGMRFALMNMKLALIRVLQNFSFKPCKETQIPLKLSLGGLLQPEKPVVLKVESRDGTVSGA

SMILES: Cc1cccc(-c2noc(C3CCCCC3)n2)c1
- IC50 (Caspase-3): 32 µM (active)
- IC50 [1]: 11.3 µM (active)
- IC50 [2]: 40.1 µM (active)
- IC50 [3]: > 100 µM (inactive)

SMILES: COC(=O)Cn1c2ccc(OC)cc2c2nc3ccccc3nc21
- EC50 [4]: > 99 µM (inactive)
- EC50 [5]: > 99 µM (inactive)

SMILES: O=C(Nc1cccc(F)c1)N1CC2(CCN(C(=O)c3cc(C(F)(F)F)cc(C(F)(F)F)c3)CC2)C1
- AC50 (Cytochrome P450 3A4): 39.8 µM (inconclusive)
- AC50 (Cytochrome P450 2C9): inconclusive

SMILES: Nc1c2c(nc3sc4c(c13)CCCCC4)CCCC2
- CC50 [6]: 18 µM (active)
- IC50 (Caspase-3): 18.4 µM (active)
- IC50 [1]: 10.3 µM (active)
- IC50 [2]: 33.7 µM (active)
- IC50 [3]: 32.8 µM (active)

SMILES: CCC(CC)C(=O)NCc1ccc2c(c1)cc(C)n2C
- AC50 [7]: > 380 µM (inactive)
- EC50 (Protein RecA): > 380 µM (inactive)
- AC50 (Cytochrome P450 2D6): 31.6 µM (inconclusive)
- AC50 (Cytochrome P450 2C9): inconclusive

SMILES: CCCNC(=O)Cn1c(=O)/c(=C/c2ccc(-c3cccc([N+](=O)[O-])c3)o2)s/c1=C\C(=O)C(C)(C)C
- EC50 [4]: > 99 µM (inactive)
- EC50 [5]: > 99 µM (inactive)

SMILES: CCCCN1CC(=O)N2[C@H]3c4cc(C)ccc4OC[C@@H]3[C@H](c3ccccc3)[C@]2(C)C1=O
- EC50 [4]: > 99 µM (inactive)
- EC50 [5]: 24 µM (inactive)

SMILES: Cc1ccc2c(Cl)c(C(=O)N/N=C/c3cccn3C)sc2c1
- EC50 [4]: > 99 µM (inactive)
- EC50 [5]: > 99 µM (inactive)
